Laboratory results reported in PubChem BioAssay AID1963421 (Molecular Pharmacology Branch, DTP, NCI, 2024).
Several values for one entry are separate records, joined by “and”; a condition that tells them apart may be missing. Equal values may be shown once.

System: 519858-162-T-J1-PDC complex spheroid growth, % test/control
Test: Anticancer human tumor 519858-162-T-J1-PDC patient-derived colon adenocarcinoma cell line growth inhibition [Asc]
Conditions: for viability, T/C: stronger effect = lower value
In short: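 Complex spheroids combining tumor cells with HUVEC endothelial cells and human MSCs, at 37 degrees C, 5% CO2; agents tested alone or combined, half-log dilutions from at or near clinical Cmax, or 10 microM if Cmax unknown.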

[1] = curve of first compound, second compound 0.0316 µM
[2] = curve of first compound, second compound 0.1 µM
[3] = curve of first compound, second compound 0.316 µM
[4] = curve of first compound, second compound 1 µM
[5] = curve of first compound, second compound 3.16 µM
[6] = curve of first compound, second compound 10 µM
[7] = second compound 0.0316 µM, first compound 0.000316 µM
[8] = second compound 0.0316 µM, first compound 0.001 µM
[9] = second compound 0.0316 µM, first compound 0.00316 µM
[10] = second compound 0.0316 µM, first compound 0.01 µM
[11] = second compound 0.0316 µM, first compound 0.0316 µM
[12] = second compound 0.0316 µM, first compound 0.1 µM
[13] = second compound 0.1 µM, first compound 0.000316 µM
[14] = second compound 0.1 µM, first compound 0.001 µM
[15] = second compound 0.1 µM, first compound 0.00316 µM
[16] = second compound 0.1 µM, first compound 0.01 µM
[17] = second compound 0.1 µM, first compound 0.0316 µM
[18] = second compound 0.1 µM, first compound 0.1 µM
[19] = second compound 0.316 µM, first compound 0.000316 µM
[20] = second compound 0.316 µM, first compound 0.001 µM
[21] = second compound 0.316 µM, first compound 0.00316 µM
[22] = second compound 0.316 µM, first compound 0.01 µM
[23] = second compound 0.316 µM, first compound 0.0316 µM
[24] = second compound 0.316 µM, first compound 0.1 µM
[25] = second compound 1 µM, first compound 0.000316 µM
[26] = second compound 1 µM, first compound 0.001 µM
[27] = second compound 1 µM, first compound 0.00316 µM
[28] = second compound 1 µM, first compound 0.01 µM
[29] = second compound 1 µM, first compound 0.0316 µM
[30] = second compound 1 µM, first compound 0.1 µM
[31] = second compound 3.16 µM, first compound 0.00316 µM
[32] = second compound 3.16 µM, first compound 0.01 µM
[33] = second compound 3.16 µM, first compound 0.0316 µM
[34] = second compound 3.16 µM, first compound 0.1 µM
[35] = second compound 10 µM, first compound 0.00316 µM
[36] = second compound 10 µM, first compound 0.01 µM
[37] = second compound 10 µM, first compound 0.0316 µM
[38] = second compound 10 µM, first compound 0.1 µM
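Further: seven day drug exposure begun three days after spheroid seeding.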
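Wherever viability, T/C is given: 100% = DMSO vehicle wells and lower values mean less viable spheroid.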

Work on `Cn1ncnc1[C@H]1c2n[nH]c(=O)c3cc(F)cc(c23)N[C@@H]1c1ccc(F)cc1` + Cc1c(S(C)(=O)=O)c(-c2cc(F)cc(N3CCN(c4ccc(NS(=O)(=O)c5ccc(NC(CCN6CCC(C(=O)OCCCP(=O)(O)O)CC6)CSc6ccccc6)c(S(=O)(=O)C(F)(F)F)c5)cc4)CC3)c2)c(-c2ccc(Cl)cc2)n1C(C)C yielded an IC50 [1] greater than 0.1 µM, an IC50 [2] greater than 0.1 µM and an IC50 [3] greater than 0.1 µM. It also gave an IC50 [4] greater than 0.1 µM, an IC50 [5] greater than 0.1 µM and an IC50 [6] of 0.1 µM. It also gave a viability, T/C [7] of 119%, a viability, T/C [8] of 120% and a viability, T/C [9] of 73%. For the same compound, the viability, T/C [10] was 100%, the viability, T/C [11] was 69% and the viability, T/C [12] was 95.4%. For the same compound, the viability, T/C [13] was 121%, the viability, T/C [14] was 78.9% and the viability, T/C [15] was 85.8%. It also gave a viability, T/C [16] of 123%, a viability, T/C [17] of 76.6% and a viability, T/C [18] of 54.9%. The viability, T/C [19] was 115%, the viability, T/C [20] was 101% and the viability, T/C [21] was 61.3%. For the same compound, the viability, T/C [22] was 92.9%, the viability, T/C [23] was 83.7% and the viability, T/C [24] was 89.4%. The viability, T/C [25] was 88.8%, the viability, T/C [26] was 76.5% and the viability, T/C [27] was 131%. The viability, T/C [28] was 60.8%, the viability, T/C [29] was 74.6% and the viability, T/C [30] was 90.5%. It also gave a viability, T/C (second compound 3.16 µM, first compound 0.000316 µM) of 104%, a viability, T/C (second compound 3.16 µM, first compound 0.001 µM) of 87.1% and a viability, T/C [31] of 83.7%. It also gave a viability, T/C [32] of 75.2%, a viability, T/C [33] of 113% and a viability, T/C [34] of 79.1%. It also gave a viability, T/C (second compound 10 µM, first compound 0.000316 µM) of 69.5%, a viability, T/C (second compound 10 µM, first compound 0.001 µM) of 95.7% and a viability, T/C [35] of 63.2%. For the same compound, the viability, T/C [36] was 49.6%, the viability, T/C [37] was 61.3% and the viability, T/C [38] was 61.4%.
`O=C(c1ccc(F)c(F)c1Nc1ccc(I)cc1F)N1CC(O)([C@@H]2CCCCN2)C1` + Cc1c(S(C)(=O)=O)c(-c2cc(F)cc(N3CCN(c4ccc(NS(=O)(=O)c5ccc(NC(CCN6CCC(C(=O)OCCCP(=O)(O)O)CC6)CSc6ccccc6)c(S(=O)(=O)C(F)(F)F)c5)cc4)CC3)c2)c(-c2ccc(Cl)cc2)n1C(C)C gave an IC50 [1] of 0.283 µM, an IC50 [2] of 0.212 µM and an IC50 [3] of 0.164 µM. It also gave an IC50 [4] of 0.232 µM, an IC50 [5] of 0.235 µM and an IC50 [6] of 0.122 µM. For the same compound, the viability, T/C [9] was 113%, the viability, T/C [10] was 84.2% and the viability, T/C [11] was 78.6%. The viability, T/C [12] was 115%, the viability, T/C (second compound 0.0316 µM, first compound 0.316 µM) was 44.9% and the viability, T/C (second compound 0.0316 µM, first compound 1 µM) was 14.5%. It also gave a viability, T/C [15] of 93.6%, a viability, T/C [16] of 91.4% and a viability, T/C [17] of 76.5%. It also gave a viability, T/C [18] of 50.8%, a viability, T/C (second compound 0.1 µM, first compound 0.316 µM) of 54.6% and a viability, T/C (second compound 0.1 µM, first compound 1 µM) of 18.9%. For the same compound, the viability, T/C [21] was 81.8%, the viability, T/C [22] was 92.2% and the viability, T/C [23] was 110%. The viability, T/C [24] was 63.8%, the viability, T/C (second compound 0.316 µM, first compound 0.316 µM) was 39.2% and the viability, T/C (second compound 0.316 µM, first compound 1 µM) was 24.1%. It also gave a viability, T/C [27] of 108%, a viability, T/C [28] of 92.1% and a viability, T/C [29] of 72.5%. For the same compound, the viability, T/C [30] was 54.7%, the viability, T/C (second compound 1 µM, first compound 0.316 µM) was 66% and the viability, T/C (second compound 1 µM, first compound 1 µM) was 19.5%. For the same compound, the viability, T/C [31] was 61.8%, the viability, T/C [32] was 82.7% and the viability, T/C [33] was 60.3%. For the same compound, the viability, T/C [34] was 72%, the viability, T/C (second compound 3.16 µM, first compound 0.316 µM) was 43.3% and the viability, T/C (second compound 3.16 µM, first compound 1 µM) was 12.9%. For the same compound, the viability, T/C [35] was 75.6%, the viability, T/C [36] was 59.8% and the viability, T/C [37] was 47.1%. The viability, T/C [38] was 60.5%, the viability, T/C (second compound 10 µM, first compound 0.316 µM) was 39.3% and the viability, T/C (second compound 10 µM, first compound 1 µM) was 9.69%.
`NC1CCC(NC2CC2c2ccccc2)CC1` (stereo not drawn) + CNC(C)C(=O)NC1CN(S(=O)(=O)c2cccc(S(=O)(=O)N3CCC4CCC(C(=O)NC(c5ccccc5)c5ccccc5)N4C(=O)C(NC(=O)C(C)NC)C3)c2)CCC2CCC(C(=O)NC(c3ccccc3)c3ccccc3)N2C1=O gave an IC50 (curve of first compound, second compound 0.00316 µM) greater than 0.1 µM, an IC50 (curve of first compound, second compound 0.01 µM) greater than 0.1 µM and an IC50 [1] greater than 0.1 µM. The IC50 [2] was greater than 0.1 µM, the IC50 [3] was greater than 0.1 µM and the IC50 [4] was greater than 0.1 µM. For the same compound, the viability, T/C (second compound 0.00316 µM, first compound 0.000316 µM) was 106%, the viability, T/C (second compound 0.00316 µM, first compound 0.001 µM) was 90.1% and the viability, T/C (second compound 0.00316 µM, first compound 0.00316 µM) was 117%. It also gave a viability, T/C (second compound 0.00316 µM, first compound 0.01 µM) of 112%, a viability, T/C (second compound 0.00316 µM, first compound 0.0316 µM) of 92.4% and a viability, T/C (second compound 0.00316 µM, first compound 0.1 µM) of 85.3%. For the same compound, the viability, T/C (second compound 0.01 µM, first compound 0.000316 µM) was 129%, the viability, T/C (second compound 0.01 µM, first compound 0.001 µM) was 83.7% and the viability, T/C (second compound 0.01 µM, first compound 0.00316 µM) was 112%. For the same compound, the viability, T/C (second compound 0.01 µM, first compound 0.01 µM) was 88.5%, the viability, T/C (second compound 0.01 µM, first compound 0.0316 µM) was 109% and the viability, T/C (second compound 0.01 µM, first compound 0.1 µM) was 106%. It also gave a viability, T/C [7] of 89%, a viability, T/C [8] of 111% and a viability, T/C [9] of 91.9%. For the same compound, the viability, T/C [10] was 97.4%, the viability, T/C [11] was 95.5% and the viability, T/C [12] was 102%. For the same compound, the viability, T/C [13] was 105%, the viability, T/C [14] was 112% and the viability, T/C [15] was 121%. It also gave a viability, T/C [16] of 94.9%, a viability, T/C [17] of 109% and a viability, T/C [18] of 90%. For the same compound, the viability, T/C [19] was 77.2%, the viability, T/C [20] was 81.5% and the viability, T/C [21] was 118%. The viability, T/C [22] was 81.4%, the viability, T/C [23] was 92.1% and the viability, T/C [24] was 102%. It also gave a viability, T/C [25] of 82.9%, a viability, T/C [26] of 101% and a viability, T/C [27] of 115%. The viability, T/C [28] was 81.3%, the viability, T/C [29] was 85.8% and the viability, T/C [30] was 80.3%.
For `NC(=O)C(=Cn1cnc(-c2cc(C(F)(F)F)cc(C(F)(F)F)c2)n1)c1cncnc1`, the viability, T/C (compound 0.000949 µM) was 106% and 86.6% and 101%, the viability, T/C (compound 0.003 µM) was 105% and 110% and 63.5% and the viability, T/C (compound 0.00949 µM) was 101% and 62.7% and 81.4%. The viability, T/C (compound 0.03 µM) was 87.2% and 69% and 97.2%, the viability, T/C (compound 0.0949 µM) was 89.4% and 72.2% and 65.5% and the viability, T/C (compound 0.3 µM) was 72.1% and 90.1% and 82.9%. For the same compound, the IC50 (curve of compound) was greater than 0.3 µM.
